This note sets out measurements from paper PMC7006680, “Sulfocoumarins as dual inhibitors of human carbonic anhydrase isoforms IX/XII and of human thioredoxin reductase” (Journal of Enzyme Inhibition and Medicinal Chemistry, 2020).

For one experiment, the target named is T1, hCA XII (Homo sapiens, UniProt O43570).
T1 construct: made in house
The experiment is described as follows: Stopped-flow CO2 hydration CA inhibition assay, hCA XII. The format is biochemical. The conditions noted are these: recombinant enzyme, 15 min pre-incubation.

Experiment [1] concerns MCF-7 (breast adenocarcinoma). The experiment is described as follows: MTT cytotoxicity assay, MCF-7. The format is cell-based, human. In general terms: Formazan colour is commonly taken as a measure of viable cells.
Experimental: (§1) About 2000–4000 cells per well (depending on line nature) were placed in 96-well plates and after 24 h compounds were added to the wells. Untreated cells were used as a control. The plates were incubated for 48 h, 37 °C, and 5% CO2. The number of surviving cells was determined using 3-(4,5-dimethylthiazol-2-yl)-2,5-diphenyltetrazolinium bromide (MTT). MTT-test: after incubating culture medium was removed and 200 µL fresh medium with 20 µL MTT (2 mg/mL in HBSS) was added in each well of the plate. After incubation (3 h, 37 °C, 5% CO2), the medium with MTT was removed and 200 µL DMSO were added at once to each sample. The samples were tested at 540 nm on Thermo Scientific Multiskan EX microplate photometer. The half-maximal inhibitory concentration (IC50) of each compound was calculated using Graph Pad Prism® 3.0 (GraphPad Software, La Jolla, CA).
Another experiment addresses T2, hCA IX (Homo sapiens, UniProt Q16790).
T2 construct: made in house
The experiment can be described thus: Stopped-flow CO2 hydration CA inhibition assay, hCA IX. The class given is biochemical. Conditions: recombinant enzyme, 15 min pre-incubation.

Experiment [2] has as its system HT-1080 (human fibrosarcoma). The experiment is described as follows: MTT cytotoxicity assay, HT-1080. The format is cell-based.
Experimental: as §1
Experiment [3] has as its system SHSY5Y (human neuroblastoma). The experiment can be described thus: MTT cytotoxicity assay, SHSY5Y. The class given is cell-based. Conditions: 48 h incubation.
Experimental: as §1
The target of another experiment is T3, hCA I (Homo sapiens, UniProt P00915).
T3 construct: made in house
The experiment is described as follows: Stopped-flow CO2 hydration CA inhibition assay, hCA I. Conditions: recombinant enzyme, 15 min pre-incubation. The format is biochemical.

A further experiment concerns the target T4, TrxR (Homo sapiens, UniProt Q16881).
T4 sequence (Q16881 1-649): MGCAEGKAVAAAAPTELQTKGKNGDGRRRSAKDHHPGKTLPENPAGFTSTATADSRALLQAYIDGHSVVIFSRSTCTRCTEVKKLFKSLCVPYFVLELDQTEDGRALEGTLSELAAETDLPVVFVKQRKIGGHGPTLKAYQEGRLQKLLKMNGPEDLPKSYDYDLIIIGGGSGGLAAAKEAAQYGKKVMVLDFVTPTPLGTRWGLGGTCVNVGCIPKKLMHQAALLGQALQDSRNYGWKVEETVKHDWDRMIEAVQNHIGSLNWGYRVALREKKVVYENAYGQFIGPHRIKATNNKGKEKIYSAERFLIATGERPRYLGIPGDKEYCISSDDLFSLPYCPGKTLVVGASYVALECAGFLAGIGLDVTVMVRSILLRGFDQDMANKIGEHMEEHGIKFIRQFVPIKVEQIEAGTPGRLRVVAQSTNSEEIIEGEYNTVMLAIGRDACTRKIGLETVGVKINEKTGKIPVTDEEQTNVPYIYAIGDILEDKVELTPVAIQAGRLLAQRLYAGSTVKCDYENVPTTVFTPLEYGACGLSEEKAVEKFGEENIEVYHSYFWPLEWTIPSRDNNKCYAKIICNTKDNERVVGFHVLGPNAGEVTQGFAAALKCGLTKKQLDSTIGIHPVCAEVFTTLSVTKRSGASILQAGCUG
The experiment is described as follows: TrxR activity by DTNB reduction assay in SHSY5Y cell lysate. The format is biochemical.

A further experiment deals with T5, hCA II (Homo sapiens, UniProt P00918).
T5 construct: made in house
The experiment can be described thus: Stopped-flow CO2 hydration CA inhibition assay, hCA II. The conditions noted are these: recombinant enzyme, 15 min pre-incubation. The format is biochemical.

[4] abbreviates: Homo sapiens, MCF7, 48 h incubation.
The mark [5] stands for this setting: Homo sapiens, HT-1080, 48 h incubation.

The term Ki denotes a dissociation constant, usually derived from enzyme kinetics or from competition with a known ligand. In general, IC50 refers to the concentration that inhibits the measured activity by half. The low end stands for higher potency, the high end for lower potency.

T3 sequence (P00915 whole entry): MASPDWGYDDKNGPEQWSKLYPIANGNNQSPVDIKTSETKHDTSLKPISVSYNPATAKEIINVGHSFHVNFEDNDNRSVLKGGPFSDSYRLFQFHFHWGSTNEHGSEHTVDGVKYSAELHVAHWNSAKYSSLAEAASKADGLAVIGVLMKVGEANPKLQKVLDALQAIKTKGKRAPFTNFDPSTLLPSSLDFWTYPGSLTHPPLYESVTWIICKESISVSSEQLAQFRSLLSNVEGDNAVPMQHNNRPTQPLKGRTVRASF
T1 sequence (O43570 25-354): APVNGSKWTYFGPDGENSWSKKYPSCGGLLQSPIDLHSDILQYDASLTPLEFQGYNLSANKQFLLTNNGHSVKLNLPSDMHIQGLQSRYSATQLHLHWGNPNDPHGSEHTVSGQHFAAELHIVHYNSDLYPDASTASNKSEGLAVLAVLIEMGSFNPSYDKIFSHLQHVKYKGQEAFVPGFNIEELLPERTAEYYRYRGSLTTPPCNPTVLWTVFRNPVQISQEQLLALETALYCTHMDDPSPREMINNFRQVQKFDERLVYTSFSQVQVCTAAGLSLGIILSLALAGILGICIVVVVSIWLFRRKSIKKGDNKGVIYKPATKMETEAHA
Experimental for TrxR: Determination of TrxR activity in SHSY5Y cell lysate. TrxR activity in cell lysate was measured in 96-well plates using previously described methods[27]^,[28]. For TrxR activity measurement, compounds of different concentrations were incubated with 50 µg of cell lysate and 200 µM NADPH in a volume of 100 µL of 50 mM Tris–HCl and 1 mM EDTA, pH 7.5 (TE buffer), for different time points in 96-well plates at room temperature. […] TrxR activity was calculated as a percentage of enzyme activity of that of DMSO vehicle treated sample.
Experimental for hCA II: (§2) An Applied Photophysics stopped-flow instrument has been used for assaying the CA catalysed CO2 hydration activity[22]. Phenol red (at a concentration of 0.2 mM) has been used as indicator, working at the absorbance maximum of 557 nm, with 20 mM Tris (pH 8.3) as buffer, and 20 mM Na2SO4 (for maintaining constant the ionic strength), following the initial rates of the CA-catalysed CO2 hydration reaction for a period of 10–100 s. The CO2 concentrations ranged from 1.7 to 17 mM for the determination of the kinetic parameters and inhibition constants. […] The uncatalysed rates were determined in the same manner and subtracted from the total observed rates. Stock solutions of inhibitor (0.1 mM) were prepared in distilled-deionised water and dilutions up to 0.005 nM were done thereafter with the assay buffer. Inhibitor and enzyme solutions were pre-incubated together for 15 min at room temperature prior to assay, in order to allow for the formation of the E–I complex. The inhibition constants were obtained by non-linear least-squares methods using PRISM 3 and the Cheng-Prusoff equation, as reported earlier, and represent the mean from at least three different determinations.
Experimental for hCA IX: as §2
Experimental for hCA XII: as §2

Take `O=S1(=O)C=Cc2cc(-c3nnnn3-c3ccccc3)ccc2O1` [Compound 1c, 5-(2,2-Dioxido-1,2-benzoxathiin-6-yl)-1-phenyl-1H-tetrazole]: the inhibition constant (Ki) on hCA XII turned out to be 7.1 nM; at hCA IX it was 8.5 nM. For the same compound, the IC50 amounted to 101 µM in experiment [1] (setting [4]); 12.3 µM in experiment [2] (setting [5]); 18.4 µM in experiment [3] (Homo sapiens, SH-SY5Y).

Turning to `O=S1(=O)C=Cc2cc(-n3cc(-c4ccc(Cl)cc4)nn3)ccc2O1` [Compound 1a, 4-(4-Chlorophenyl)-1-(2,2-dioxido-1,2-benzoxathiin-6-yl)-1H-1,2,3-triazole], the Ki on hCA XII worked out at 17.7 nM; at hCA IX it was 7.8 nM. The IC50 in experiment [1] (setting [4]) worked out at 1.8 µM; in experiment [2] (setting [5]), 11 µM; in experiment [3] (Homo sapiens, SH-SY5Y), 22 µM.

For “1-(2,2-Dioxido-1,2-benzoxathiin-6-yl)-5-(4-fluorophenyl)-1H-1,2,3-triazole [Compound 1d]”, the inhibition constant Ki at hCA I and on hCA II was above 10 µM each time. For the same compound, the IC50 in experiment [1] (48 h incubation) was 50 µM; against TrxR it was 125 µM; in experiment [2] (48 h incubation) it was 7.9 µM; in experiment [3], 18.5 µM.

Consider “1-(2,2-Dioxido-1,2-benzoxathiin-6-yl)-4-(4-fluorophenyl)-1H-1,2,3-triazole [Compound 1b]”, for which the Ki at hCA I and at hCA II was above 10 µM in each case. The compound also registered a half-maximal inhibitory concentration (IC50) on TrxR of 40 µM.
